# Laboratory results from patent US20070238098A1, “Method and Kit for Predicting Adverse Side Effects of Paclitaxel Therapy” (priority 2003, published 2007).
# System: breast cancer patients
# Experiment: clinical study of paclitaxel preoperative chemotherapy: adverse side effects graded by NCI-CTC
# Assay type: in vivo, human
# Conditions: 54 breast cancer patients, stage II or IIIa; 80 mg/m paclitaxel by intravenous infusion over 1 hour, once a week for 12 weeks
# Procedure: 54 breast cancer patients were registered in a clinical study of paclitaxel preoperative chemotherapy. The following summarizes the criteria for patient selection. 1) Breast cancer patients age 70 or younger in stage II or IIIa as indicated by histopathological testing; and, 2) suitable physiological function (WBC >4,000 mm^3, platelet count […], hemoglobin level >10 g/dl, serum creatinine concentration <1.2 mg/dl, serum total bilirubin level <1.5 mg/dl, GOT/GPT <60/70). Patients who received proceeding chemotherapy or radiation therapy were excluded. Namely, all 54 patients who participated in this clinical study of paclitaxel preoperative chemotherapy were nearly at the same stage either clinically or histologically, and had no prior history of chemotherapy. […]
# White blood cell count, red blood cell count, hemoglobin level and platelet count were measured weekly for each patient to evaluate the presence or absence of adverse side effects. Adverse side effects observed during the course of therapy were evaluated and graded based on the Common Toxicity Criteria of the US National Cancer Institute (NCI-CTC) (see Trotti, A., et al., Common toxicity criteria: version 2.0—an improved reference for grading the acute effects of cancer treatment: impact on radiotherapy, Int. J. Radiat. Oncol. Biol. Phys., 47: 13-47, 2000). […]
compound,measurement,value
CC(=O)O[C@H]1C(=O)[C@@]2(C)[C@H]([C@H](OC(=O)c3ccccc3)[C@]3(O)C[C@H](OC(=O)[C@H](O)[C@@H](NC(=O)c4ccccc4)c4ccccc4)C(C)=C1C3(C)C)[C@]1(OC(C)=O)CO[C@@H]1C[C@@H]2O [paclitaxel],granulocytopenia observed (most frequently observed adverse side effect; NCI-CTC grade 1 to 4),24 patients
